Article PMC6225423, “Synthesis, Structural and Thermal Studies of 3-(1-Benzyl-1,2,3,6-tetrahydropyridin-4-yl)-5-ethoxy-1H-indole (D2AAK1_3) as Dopamine D2 Receptor Ligand” (Molecules : A Journal of Synthetic Chemistry and Natural …, 2018)

Molecular target: T1, human dopamine D2 receptor (Homo sapiens, UniProt P14416)
T1 construct: gene DRD2; cloned human D2S receptor
Assay: [3H]spiperone competition radioligand binding, membranes of CHO-K1 cells stably expressing human D2S

T1 sequence (P14416 1-414 isoform P14416-2): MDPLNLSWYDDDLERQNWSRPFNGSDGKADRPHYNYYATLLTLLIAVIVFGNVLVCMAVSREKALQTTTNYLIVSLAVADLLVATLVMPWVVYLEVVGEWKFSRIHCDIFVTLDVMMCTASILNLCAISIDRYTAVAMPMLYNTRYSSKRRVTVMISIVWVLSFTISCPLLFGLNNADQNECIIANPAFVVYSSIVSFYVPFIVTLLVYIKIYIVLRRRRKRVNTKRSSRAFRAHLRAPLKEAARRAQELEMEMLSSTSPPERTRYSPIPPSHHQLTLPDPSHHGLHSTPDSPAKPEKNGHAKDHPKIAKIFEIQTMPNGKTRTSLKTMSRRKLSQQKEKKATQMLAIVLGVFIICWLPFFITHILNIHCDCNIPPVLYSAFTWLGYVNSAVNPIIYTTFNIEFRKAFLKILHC

In the case of `CCOc1ccc2[nH]cc(C3=CCN(Cc4ccccc4)CC3)c2c1` [D2AAK1_3, 3-(1-Benzyl-1,2,3,6-tetrahydropyridin-4-yl)-5-ethoxy-1H-indole], the Ki is reported as 151 nM.
